Data set [1] in a line: Cytostatic activity against human Huh5-2 cells after 3 days by MTS method. The format is cell-based, Huh-5-2. (Formazan colour is commonly taken as a measure of viable cells.)
The next data set concerns Hepatitis C virus. As to the kind of experiment: Antiviral activity against Hepatitis C virus genotype 1b infected in human Huh5-2 cells assessed as luciferase activity after 4 days by Steady-Glo luciferase assay. In kind it is functional, organism-based, Hepacivirus hominis. To be noted: Huh-5-2, 96 h.
The nature of data set [2]: Selectivity index, ratio of CC50 for human Huh5-2 cells to EC50 for Hepatitis C virus genotype 1b infected in human Huh5-2 cells. The note with it: read-out: Ratio CC50/EC50. The format is toxicity, cell-based, Huh-5-2.

20 compounds from ChEMBL document CHEMBL2375297, “Coumarins hinged directly on benzimidazoles and their ribofuranosides to inhibit hepatitis C virus” (Eur J Med Chem, 2013) can be followed below.

What is called CC50 is the concentration that lowers cell viability or growth by half. A higher CC50 goes with lower toxicity to the cells. The EC50 is the concentration giving half of the maximal effect.

On to `Cc1cc2nc(-c3cc4cc(Br)ccc4oc3=O)[nH]c2cc1C`, for which the midpoint of cytotoxicity in data set [1], the CC50 at 72 h, lay at 172 µM. Further, in the data set on Hepatitis C virus, the EC50 came to 40 µM. Moreover, the selectivity ratio in data set [2] stood at 4.3.

In turn, `CC(=O)OC[C@H]1O[C@@H](n2c(-c3cc4ccccc4oc3=O)nc3ccccc32)[C@H](OC(C)=O)[C@@H]1OC(C)=O` returned a CC50 at 72 h in data set [1] of 98 µM. Besides, in the data set with Hepatitis C virus, the EC50 amounted to 60 µM. In addition, the selectivity ratio in data set [2] worked out at 1.6.

In data set [1], `COc1cccc2cc(-c3nc4cccnc4[nH]3)c(=O)oc12` displayed a CC50 at 72 h of 170 µM. In the data set with Hepatitis C virus, the EC50 was determined as 84 µM. The selectivity ratio in data set [2] turned out to be 2.

On to `Cc1c(-c2nc3cc(F)ccc3[nH]2)c(=O)oc2ccccc12`, for which the CC50 at 72 h in data set [1] amounted to 170 µM. For the same compound, the 50% effective concentration (EC50) in the data set with Hepatitis C virus amounted to 79 µM. Also, in data set [2], the selectivity ratio came out at 2.2.

`CC(=O)OC[C@H]1O[C@@H](n2c(-c3c(C)c4ccccc4oc3=O)nc3ccccc32)[C@H](OC(C)=O)[C@@H]1OC(C)=O`: half-maximal cytotoxicity in data set [1] (CC50 at 72 h) was put at 941 µM. Also, the EC50 in the data set on Hepatitis C virus turned out to be 941 µM. In addition, in data set [2], the selectivity ratio was determined as 1.

For `O=c1oc2ccccc2cc1-c1nc2cc(F)ccc2[nH]1`, it took 13 µM to reach half-maximal cytotoxicity in data set [1] (CC50 at 72 h). For the same compound, the half-maximal effective concentration (EC50) in the data set on Hepatitis C virus stood at 84 µM. Moreover, the selectivity ratio in data set [2] came to 0.15.

Consider `COc1cccc2cc(-c3nc4ccc(C)cc4[nH]3)c(=O)oc12`, for which the CC50 at 72 h in data set [1] came to 12 µM. The EC50 with Hepatitis C virus is 12 µM. For the same compound, in data set [2], the selectivity ratio was 1.

As to `Cc1cc2nc(-c3cc4ccccc4oc3=O)[nH]c2cc1C`, the CC50 at 72 h in data set [1] amounted to 23 µM. Moreover, the concentration giving a half-maximal response (EC50) in the data set with Hepatitis C virus was determined as 3 µM. Also, the selectivity ratio in data set [2] amounted to 7.9.

With `O=C(O)c1ccc2[nH]c(-c3cc4cc([N+](=O)[O-])ccc4oc3=O)nc2c1`, in data set [1], the midpoint of cytotoxicity, the CC50 at 72 h, lay at 10 µM. Moreover, the EC50 with Hepatitis C virus is 6.9 µM. Besides, in data set [2], the selectivity ratio stood at 1.5.

As to `Cc1c(-c2nc3ccccc3[nH]2)c(=O)oc2ccccc12`, in data set [1], the CC50 at 72 h amounted to 27 µM. Also, the EC50 with Hepatitis C virus is 40 µM. The selectivity ratio in data set [2] came to 0.66.

On to `O=C(O)c1ccc2[nH]c(-c3cc4ccccc4oc3=O)nc2c1`, for which, in data set [1], the CC50 at 72 h was found to be 13 µM. In addition, the concentration giving a half-maximal response (EC50) in the data set with Hepatitis C virus amounted to 40 µM. In addition, the selectivity ratio in data set [2] is 0.32.

For the compound `O=c1oc2ccccc2cc1-c1nc2ccccc2n1[C@@H]1O[C@H](CO)[C@@H](O)[C@H]1O`, in data set [1], the CC50 at 72 h was found to be 127 µM. Also, the EC50 with Hepatitis C virus stood at 20 µM. For the same compound, the selectivity ratio in data set [2] stood at 6.4.

For the compound `CC(=O)Oc1ccc2c(C)c(-c3nc4ccccc4[nH]3)c(=O)oc2c1`, the CC50 at 72 h in data set [1] was found to be 153 µM. Moreover, the EC50 in the data set on Hepatitis C virus worked out at 153 µM. In addition, in data set [2], the selectivity ratio is 1.

`Cc1ccc2[nH]c(-c3cc4ccccc4oc3=O)nc2c1` yielded a CC50 at 72 h in data set [1] of 2.3 µM. In the data set on Hepatitis C virus, the EC50 is 2.3 µM. In data set [2], the selectivity ratio came out at 1.

Regarding `Cc1cc2nc(-c3c(C)c4ccccc4oc3=O)[nH]c2cc1C`, the midpoint of cytotoxicity in data set [1], the CC50 at 72 h, lay at 77 µM. Also, the EC50 with Hepatitis C virus amounted to 40 µM. Besides, the selectivity ratio in data set [2] is 2.

The compound `O=c1oc2ccccc2cc1-c1nc2cc3ccccc3cc2[nH]1` gave a cytotoxic concentration (CC50) at 72 h in data set [1] of 135 µM. The EC50 in the data set with Hepatitis C virus was 105 µM. In addition, the selectivity ratio in data set [2] worked out at 1.3.

For the compound `Cc1c(-c2nc3ccccc3n2[C@@H]2O[C@H](CO)[C@@H](O)[C@H]2O)c(=O)oc2ccccc12`, the CC50 at 72 h in data set [1] is 122 µM. For the same compound, the EC50 in the data set on Hepatitis C virus was determined as 110 µM. The selectivity ratio in data set [2] is 1.1.

In data set [1], `Cc1ccc2[nH]c(-c3c(C)c4ccccc4oc3=O)nc2c1` had a CC50 at 72 h of 29 µM. Further, the EC50 in the data set on Hepatitis C virus was 28 µM. For the same compound, the selectivity ratio in data set [2] was found to be 1.

Take `O=C(O)c1ccc2[nH]c(-c3cc4ccc(I)cc4oc3=O)nc2c1`: the CC50 at 72 h in data set [1] is 118 µM. Further, the EC50 in the data set on Hepatitis C virus was found to be 118 µM. In addition, the selectivity ratio in data set [2] is 1.

Compound `Cc1ccc2[nH]c(-c3cc4c(ccc5ccccc54)oc3=O)nc2c1` gave a CC50 at 72 h in data set [1] of 77 µM. Further, the EC50 with Hepatitis C virus was determined as 5.5 µM. Further, the selectivity ratio in data set [2] is 14.
